Measurements as given in ChEMBL document CHEMBL1154989, “Towards the second generation of Boceprevir: Dithianes as an alternative P2 substituent for 2,2-dimethyl cycloproyl proline in HCV NS3 protease inhibitors” (Bioorg Med Chem Lett, 2010).
Calls of active or inactive are those of the source. No cut-off for these calls is given here.

Legend:
[1] = Inhibition of HCV NS3/4A serine protease by continuous spectrophotometric assay; design: species or system Hepacivirus hominis
[2] = Selectivity for HCV NS3 serine protease over human neutrophil elastase
[3] = AUC in rat at 10 mg/kg, po; type: ADME, organism-based; design: dose 10 mg/kg, route oral; conditions: plasma
[4] = tested on: Hepatitis C virus; experiment: Antiviral activity against HCV replicon expressing NS3-5 infected in HuH7 cells assessed as inhibition of viral replication after 3 days by ELISA; type: functional, organism-based, Hepacivirus hominis, Huh-7

| SMILES | Ki [1] [nM] | Ratio [2] | AUC [3] [µM·h] | EC90 ([4]; huh-7) | EC90 ([4]; Hepatitis C virus, Huh-7, 72 h, read-out: EC90) [nM] |
| --- | --- | --- | --- | --- | --- |
| C=CCNC(=O)C(=O)C(CC1CC1)NC(=O)[C@@H]1CC2(CN1C(=O)[C@@H](NC(=O)NC(C)(C)C)C(C)(C)C)SCCS2 (stereo not given in full) | 700 | inactive |  | Not Active |  |
| C=CCNC(=O)C(=O)C(CCC)NC(=O)[C@@H]1CC2(CN1C(=O)[C@@H](NC(=O)NC1(CS(=O)(=O)C(C)(C)C)CCCCC1)C(C)(C)C)SCCS2 (stereo not given in full) | 11 | 50 | 0.57 |  |  |
| C=CCNC(=O)C(=O)C(CCC1CC1)NC(=O)[C@@H]1CC2(CN1C(=O)[C@@H](NC(=O)N[C@@H](CN1C(=O)CC(C)(C)CC1=O)C(C)(C)C)C(C)(C)C)SCCS2 (stereo not given in full) | 13 | 1700 |  |  |  |
| C=CCNC(=O)C(=O)C(CCC)NC(=O)[C@@H]1CC2(CN1C(=O)[C@@H](NC(=O)NC1(CS(=O)(=O)C(C)(C)C)CCCCC1)C1(C)CCCCC1)SCCS2 (stereo not given in full) | 19 | 10 | 1.34 |  |  |
| C=CCNC(=O)C(=O)C(CC1CC1)NC(=O)[C@@H]1CC2(CN1C(=O)[C@@H](NC(=O)N[C@@H](CN1C(=O)CC(C)(C)CC1=O)C(C)(C)C)C1(C)CCCCC1)SCCS2 (stereo not given in full) | 18 | 200 | 0.2 |  |  |
| CC(C)(C)NC(=O)N[C@H](C(=O)N1CC2(C[C@H]1C(=O)NC(CC1CC1)C(=O)C(N)=O)SCCS2)C1CCCCC1 (stereo not given in full) | 200 |  |  |  |  |
| CC(C)(C)NC(=O)N[C@H](C(=O)N1CC2(C[C@H]1C(=O)NC(CC1CCC1)C(=O)C(N)=O)SCCS2)C(C)(C)C (stereo not given in full) | 600 |  |  |  |  |
| C=CCNC(=O)C(=O)C(CCC)NC(=O)[C@@H]1CC2(CN1C(=O)[C@@H](NC(=O)N[C@@H](CN1C(=O)CC(C)(C)CC1=O)C(C)(C)C)C(C)(C)C)SCCS2 (stereo not given in full) | 5 | 630 | 0.06 |  |  |
| C=CCNC(=O)C(=O)C(CCC)NC(=O)[C@@H]1CC2(CN1C(=O)[C@@H](NC(=O)NC1(CS(=O)(=O)C(C)(C)C)CCCCC1)C(C)(C)C)SCCCS2 (stereo not given in full) | 7 | 128 | 2.56 |  |  |
| C=CCNC(=O)C(=O)C(CCC)NC(=O)[C@@H]1CC2(CN1C(=O)[C@@H](NC(=O)N[C@@H](CN1C(=O)CC(C)(C)CC1=O)C(C)(C)C)C1(C)CCCCC1)SCCS2 (stereo not given in full) | 6 | 240 | 0.04 |  |  |
| C=CCNC(=O)C(=O)C(CC1CC1)NC(=O)[C@@H]1CC2(CN1C(=O)[C@@H](NC(=O)NC1(CS(=O)(=O)C(C)(C)C)CCCCC1)C(C)(C)C)SCCCS2 (stereo not given in full) | 18 | 130 | 1.69 |  |  |
| C=CCNC(=O)C(=O)C(CC1CC1)NC(=O)[C@@H]1CC2(CN1C(=O)[C@@H](NC(=O)N[C@@H](C(=O)OC1CC1)C(C)C)C1CCCCC1)SCCS2 (stereo not given in full) | 72 | 15 |  |  |  |

Further lines, results first:

| Ki [1] [nM] | Ratio [2] | AUC [3] [µM·h] | EC90 ([4]; huh-7) | EC90 ([4]; Hepatitis C virus, Huh-7, 72 h, read-out: EC90) [nM] | SMILES |
| --- | --- | --- | --- | --- | --- |
| 33 | 40 | 0.77 |  |  | C=CCNC(=O)C(=O)C(CC1CC1)NC(=O)[C@@H]1CC2(CN1C(=O)[C@@H](NC(=O)NC1(CS(=O)(=O)C(C)(C)C)CCCCC1)C(C)(C)C)SCCS2 (stereo not given in full) |
| 14 |  | 0.14 |  | 350 | CC(C)(C)NC(=O)N[C@H](C(=O)N1C[C@H]2[C@@H]([C@H]1C(=O)NC(CC1CCC1)C(=O)C(N)=O)C2(C)C)C(C)(C)C (stereo not given in full) [BOCEPREVIR] |
| 13 | 1500 | 0.2 |  |  | C=CCNC(=O)C(=O)C(CCCC)NC(=O)[C@@H]1CC2(CN1C(=O)[C@@H](NC(=O)N[C@@H](CN1C(=O)CC(C)(C)CC1=O)C(C)(C)C)C(C)(C)C)SCCS2 (stereo not given in full) |
| 400 |  |  |  |  | CC(C)(C)NC(=O)N[C@H](C(=O)N1CC2(C[C@H]1C(=O)NC(CC1CCC1)C(=O)C(N)=O)SCCS2)C1CCCCC1 (stereo not given in full) |
| 84 | 40 |  |  |  | C=CCNC(=O)C(=O)C(CC1CC1)NC(=O)[C@@H]1CC2(CN1C(=O)[C@@H](NC(=O)N[C@@H](C(=O)OC1CC1)C(C)C)C(C)(C)C)SCCS2 (stereo not given in full) |
| 300 |  |  |  |  | CC(C)(C)NC(=O)N[C@H](C(=O)N1CC2(C[C@H]1C(=O)NC(CC1CC1)C(=O)C(N)=O)SCCS2)C(C)(C)C (stereo not given in full) |
| 21 | 290 |  |  |  | C=CCNC(=O)C(=O)C(CC1CC1)NC(=O)[C@@H]1CC2(CN1C(=O)[C@@H](NC(=O)N[C@@H](CN1C(=O)CC(C)(C)CC1=O)C(C)(C)C)C(C)(C)C)SCCS2 (stereo not given in full) |
